From ChEMBL document CHEMBL6127139, “Lysine-Targeted Covalent Inhibitors of PI3Kδ Synthesis and Screening by In Situ Interaction Upgradation” (J Med Chem, 2024)
Active and inactive are the calls of the source. The calls are words filed in the database; no cut-off is given here.

How the values were obtained:
[1] = target: T1, Phosphatidylinositol 4,5-bisphosphate 3-kinase catalytic subunit delta isoform (Homo sapiens, UniProt O00329); test: Inhibition of recombinant PI3Kdelta (unknown origin) using PIP2:3PS as substrate preincubated for 20 mins followed by ATP addition and measured after 1 hrs by ADP-Glo reagent based assay
T1 sequence (O00329 whole entry): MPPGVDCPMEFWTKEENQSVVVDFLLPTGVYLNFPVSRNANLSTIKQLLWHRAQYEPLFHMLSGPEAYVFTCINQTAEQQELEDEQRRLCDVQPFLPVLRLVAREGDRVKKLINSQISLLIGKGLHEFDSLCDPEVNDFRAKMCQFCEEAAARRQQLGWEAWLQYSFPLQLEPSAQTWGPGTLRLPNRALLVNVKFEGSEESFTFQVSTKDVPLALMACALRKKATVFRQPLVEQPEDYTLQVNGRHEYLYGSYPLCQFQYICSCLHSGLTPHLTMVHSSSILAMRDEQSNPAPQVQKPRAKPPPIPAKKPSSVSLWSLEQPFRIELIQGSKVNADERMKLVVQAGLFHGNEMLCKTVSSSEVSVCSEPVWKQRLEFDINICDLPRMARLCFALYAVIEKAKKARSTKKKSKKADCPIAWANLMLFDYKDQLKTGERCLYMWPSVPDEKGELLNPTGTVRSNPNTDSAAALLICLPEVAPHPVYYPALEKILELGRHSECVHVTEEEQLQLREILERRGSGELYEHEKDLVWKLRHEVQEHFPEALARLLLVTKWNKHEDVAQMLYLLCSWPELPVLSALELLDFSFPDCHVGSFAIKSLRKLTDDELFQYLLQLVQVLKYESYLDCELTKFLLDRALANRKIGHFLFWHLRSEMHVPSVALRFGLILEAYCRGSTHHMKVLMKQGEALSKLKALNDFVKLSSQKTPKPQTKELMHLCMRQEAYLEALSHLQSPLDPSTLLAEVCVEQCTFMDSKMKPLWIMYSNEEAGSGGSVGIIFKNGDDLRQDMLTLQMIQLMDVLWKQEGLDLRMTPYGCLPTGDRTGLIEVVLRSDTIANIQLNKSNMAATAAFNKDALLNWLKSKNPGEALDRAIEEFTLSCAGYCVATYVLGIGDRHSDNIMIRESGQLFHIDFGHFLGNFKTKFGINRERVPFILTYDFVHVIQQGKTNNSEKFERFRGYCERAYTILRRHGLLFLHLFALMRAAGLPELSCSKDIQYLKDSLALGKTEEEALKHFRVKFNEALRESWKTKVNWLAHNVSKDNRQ

[2] = Growth inhibition of PI3Kdelta-overexpressing human Pfeiffer cells incubated for 72 hrs by MTT assay; assay type: functional
[3] = target: T2, Phosphatidylinositol 4,5-bisphosphate 3-kinase catalytic subunit delta isoform (Homo sapiens) (UniProt O00329); test: Potency index, ratio of idelalisib IC50 to test compound IC50 for inhibition of recombinant PI3Kdelta (unknown origin) using PIP2:3PS as substrate preincubated for 20 mins followed by ATP addition and measured after 1 hrs by ADP-Glo reagent based assay; details: time 80.0 min
T2 sequence (whole entry): T1 sequence (O00329 whole entry)

SU-DHL-6 [4] = test: Potency index, ratio of idelalisib GI50 to test compound GI50 for growth inhibition of PI3Kdelta-overexpressing human SU-DHL-6 cells incubated for 72 hrs by MTT assay; assay type: functional
[5] = Stability of compound in PBS at pH 7.4 incubated for 24 hrs at 37 degreeC by HPLC analysis; assay type: physicochemical; details: buffer, pH 7.4, 24 h
[6] = Stability of compound in water/acetonitrile solution incubated for 24 hrs by HPLC analysis; assay type: physicochemical; details: buffer
[7] = Selectivity index, ratio of IC50 for inhibition of recombinant PI3Kbeta (unknown origin) using PIP2:3PS as substrate to IC50 for inhibition of recombinant PI3Kdelta (unknown origin) using PIP2:3PS as substrate
HCT-116 = test: Growth inhibition of human HCT-116 cells incubated for 72 hrs by MTT assay; assay type: functional
Raji = test: Growth inhibition of human Raji cells incubated for 72 hrs by MTT assay; assay type: functional
[8] = Selectivity ratio of GI50 for human HCT-116 cells to GI50 for PI3Kdelta overexpressing human SU-DHL-6; assay type: functional
SU-DHL-6 [9] = test: Inhibition of AKT phosphorylation in human SU-DHL-6 cells incubated for 24 hrs by Western blot analysis; assay type: cell-based; details: dose 10-1000 nM
[10] = target: T2, Phosphatidylinositol 4,5-bisphosphate 3-kinase catalytic subunit delta isoform (Homo sapiens); test: Induction of thermal stabilization of PI3Kdelta in human SU-DHL-6 cells at 1 uM preincubated for 30 mins followed by incubated under 40 to 75 degreeC for 3 mins by CETSA; assay type: cell-based; details: time 33.0 min
[11] = target: T1, Phosphatidylinositol 4,5-bisphosphate 3-kinase catalytic subunit delta isoform; test: Covalent inhibition of PI3Kdelta (unknown origin) using PIP2:3PS as substrate assessed as inhibition constant incubated upto 180 mins in presence of ATP by ADP-Glo reagent based assay
[12] = target: T2, Phosphatidylinositol 4,5-bisphosphate 3-kinase catalytic subunit delta isoform (Homo sapiens); test: Covalent inhibition of PI3Kdelta (unknown origin) using PIP2:3PS as substrate assessed as second order rate constant (Kinact/Ki ratio) incubated upto 180 mins in presence of ATP by ADP-Glo reagent based assay
SU-DHL-6 [13] = test: Induction of apoptosis in human SU-DHL-6 cells assessed as necrotic cells at 1 uM incubated for 48 hrs by Annexin V-FITC/PI staining based flow cytometric analysis (reference value: 1.05 %); assay type: functional
SU-DHL-6 [14] = test: Induction of apoptosis in human SU-DHL-6 cells assessed as early apoptotic cells at 0.01 uM incubated for 48 hrs by Annexin V-FITC/PI staining based flow cytometric analysis (reference value: 5.02 %); assay type: functional
SU-DHL-6 [15] = test: Induction of apoptosis in human SU-DHL-6 cells assessed as early apoptotic cells at 0.1 uM incubated for 48 hrs by Annexin V-FITC/PI staining based flow cytometric analysis (reference value: 5.02 %); assay type: functional
SU-DHL-6 [16] = test: Induction of apoptosis in human SU-DHL-6 cells assessed as necrotic cells at 0.1 uM incubated for 48 hrs by Annexin V-FITC/PI staining based flow cytometric analysis (reference value: 1.05 %); assay type: functional
SU-DHL-6 [17] = test: Antitumor activity against human SU-DHL-6 cells xenografted in male nude mouse assessed as tumor growth inhibition at 5 mg/kg/day, po administered for 14 days relative to control; assay type: functional; details: SU-DHL-6, 336 h, time 14 day, read-out: TGI
Pfeiffer [18] = test: Antitumor activity against human Pfeiffer cells xenografted in male nude mouse assessed as tumor growth inhibition at 5 mg/kg/day, po administered for 14 days relative to control; assay type: functional; details: 336 h, time 14 day, read-out: TGI
Pfeiffer [19] = test: Antitumor activity against human Pfeiffer cells xenografted in male nude mouse assessed as tumor growth inhibition at 30 mg/kg/day, po administered for 14 days relative to control; assay type: functional; details: 336 h, time 14 day, read-out: TGI
[20] = Toxicity in male nude mouse xenografted with human SU-DHL-6 cells assessed as change in body weight at 5 to 30 mg/kg/day, po administered for 14 days; assay type: organism-based; details: in vivo, 336 h, dose 5-30 mg/kg/day, time 14 day
Mus musculus = test: In vivo inhibition of PI3K signaling pathway in male nude mouse xenografted with human SU-DHL-6 cells assessed as reduction in AKT phosphorylation in tumor at 5 to 30 mg/kg/day, po administered for 14 days by Western blot analysis; assay type: functional, organism-based; details: dose 5-30 mg/kg/day, time 14.0 day

COc1ncc(-c2ccc3ncnc(N[C@H]4CCN(C(=O)C5CCOCC5)C4)c3n2)cc1C(=O)Oc1ccccc1
IC50 [1]: 0.27 nM
GI50 [2]: 102 nM
Ratio IC50 [3]: 10
RatioGI50 (SU-DHL-6 [4]): ~10
Stability [5]: Stable
Stability [6]: Stable
Ratio IC50 [7]: 753
GI50 (HCT-116): 1350 nM
GI50 (Raji): 5.39 µM
RatioGI50 [8]: 2500
inhibition (SU-DHL-6 [9]): Dose-Dependent Effect
Activity [10]: Active
Ki [11]: 1.85 nM
Ratio [12]: 1.76 10^5/M/s
Activity (SU-DHL-6 [13]): 1.57%
Activity (SU-DHL-6 [14]): 10.3%
Activity (SU-DHL-6 [15]): 17.68%
Activity (SU-DHL-6 [16]): 0.92%
inhibition in vivo at 5 mg/kg/day (SU-DHL-6 [17]): 84%
inhibition in vivo at 5 mg/kg/day (Pfeiffer [18]): 44%
inhibition in vivo at 30 mg/kg/day (Pfeiffer [19]): 61%
Activity [20]: Non-Toxic
inhibition (Mus musculus): Active
